These are literature values, as cited in patent US7579326B2, “Gene switch systems employing regulators with decreased dimerization” (Genetronics, Inc., priority 2000, dated 2009).

For data set [1] the following is noted: rats.
Data set [2] addresses palindromic 17-mer GAL-4 DNA binding site.

Usually half-life stands for how long it takes for the measured level to halve. For `CC#C[C@]1(O)CC[C@H]2[C@@H]3CCC4=CC(=O)CCC4=C3[C@@H](c3ccc(N(C)C)cc3)C[C@@]21C` [MFP, 11β-(4-dimethylaminophenyl)-17β-hydroxy-17α-propynyl-4,9-estradiene-3-one], the half-life in data set [1] is 1 h.
For orientation: Kd means a measure of binding affinity in units of concentration. Consider “GAL-4, residues 1-100: yeast GAL-4 DNA binding domain fragment, residues 1-100”, for which the Kd in data set [2] is 3 nM.
